Experimental data as given in ChEMBL document CHEMBL1158252, “Antimalarial activity: the search for marine-derived natural products with selective antimalarial activity” (J Nat Prod, 1996).
Converted amounts (≈) assume the structure as drawn.

Experiments:
KB = test: cells; type: ADME, cell-based; conditions: Homo sapiens
Description: Cytotoxicity against human KB cells

Plasmodium falciparum [1] = test: microbe, parasite or virus in culture; type: functional, organism-based; conditions: D6
Description: Antiplasmodial activity against Plasmodium falciparum D6

[2] = Selectivity index, ratio of IC50 for human KB cells to IC50 for Plasmodium falciparum D6; type: toxicity, cell-based; conditions: read-out: Ratio IC50
Plasmodium falciparum [3] = test: microbe, parasite or virus in culture; type: functional, organism-based; conditions: W2
Description: Antiplasmodial activity against Plasmodium falciparum W2

[4] = Selectivity index, ratio of IC50 for human KB cells to IC50 for Plasmodium falciparum W2; type: toxicity, cell-based; conditions: read-out: Ratio IC50

Row | SMILES | IC50 (KB) [µg/mL] | IC50 (Plasmodium falciparum [1]) [µg/mL] | selectivity ratio [2] | IC50 (Plasmodium falciparum [3]) [µg/mL] | selectivity ratio [4]
1 | C[C@@H]1C[C@@H]2C[C@H](C)[C@H]3CC[C@](C)(C#N)[C@H]4CC[C@@H]([C@@H]2[C@H]34)[C@]1(C)N=C=O | 4.3 (≈ 12.6 µM) | 0.0032 (≈ 0.0094 µM) | 1340 | 0.0025 (≈ 0.00734 µM) | 1710
2 | CC1=C[C@@H]2C[C@H](C)[C@H]3CC[C@](C)(C#N)[C@H]4CC[C@@H]([C@@H]2[C@H]34)[C@@H]1C | 18.2 (≈ 61.2 µM) | 0.0625 (≈ 0.21 µM) | 290 | 0.0195 (≈ 0.0655 µM) | 930
3 | COc1ccc(CO)cc1 | > 20 | > 10 | – | > 10 | –
4 | C=C1CC[C@H]2[C@H]3[C@H](CC[C@]2(C)C#N)[C@@H](C)C[C@@H](CC(C)(C)N=C=S)[C@H]13 | > 20 | 0.47 (≈ 1.32 µM) | > 42.6 | 0.109 (≈ 0.306 µM) | > 183
5 | CC(C)=C[C@H]1C[C@H](C)[C@H]2CC[C@](C)(C#N)[C@H]3CCC(C)=C1[C@H]23 | 15.2 (≈ 51.1 µM) | 0.0585 (≈ 0.197 µM) | 260 | 0.0256 (≈ 0.0861 µM) | 590
6 | O=Cc1ccc(O)cc1 [4-HYDROXYBENZALDEHYDE] | > 20 | 7.33 (≈ 60 µM) | > 2.7 | 5.56 (≈ 45.5 µM) | > 3.6
7 | C[C@@H]1C[C@@H]2C[C@H](C)[C@H]3CC[C@](C)(N=C=S)[C@H]4CC[C@@H]([C@@H]2[C@H]34)[C@]1(C)C#N | 1.6 (≈ 4.49 µM) | 0.0451 (≈ 0.126 µM) | 35 | 0.0285 (≈ 0.0799 µM) | 56
8 | C=C1CC[C@H]2[C@H]3[C@H](CC[C@]2(C)N=C=S)[C@@H](C)C[C@H](C=C(C)C)[C@]13O | 5.3 (≈ 15.3 µM) | 0.797 (≈ 2.31 µM) | 6.6 | 0.423 (≈ 1.22 µM) | 12
9 | C=C(C)[C@@H]1C=C2C(C)CC[C@@H]2C(C)CC1 (stereo partly drawn) | > 20 | > 10 | – | 8.46 (≈ 41.4 µM) | > 2.3
10 | C[C@@H]1C[C@@H]2C[C@H](C)[C@H]3CC[C@](C)(N=C=O)[C@H]4CC[C@@H]([C@@H]2[C@H]34)[C@]1(C)C#N | 2 (≈ 5.87 µM) | 0.0749 (≈ 0.22 µM) | 27 | 0.0561 (≈ 0.165 µM) | 36
11 | C=C(C)/C=C/[C@]12C[C@H](C)[C@H]3CC[C@](C)(C#N)[C@@H](CC[C@H]1C)[C@@H]32 | 19.1 (≈ 64.2 µM) | 0.09 (≈ 0.303 µM) | 210 | 0.0297 (≈ 0.0998 µM) | 640
12 | CC(C)=C[C@@H]1C[C@H](C)[C@H]2CC[C@](C)(C#N)[C@H]3CC=C(C)[C@@H]1[C@H]23 | > 20 | 0.302 (≈ 1.02 µM) | > 66.2 | 0.133 (≈ 0.447 µM) | > 150
13 | OC(c1cc(C(F)(F)F)nc2c(C(F)(F)F)cccc12)C1CCCCN1 (stereo not drawn) [MEFLOQUINE] | – | – | 490 | – | 970
14 | C[C@H]1C[C@H]2CC(C)(C)C=C3CC[C@H]4[C@@H]([C@@H]1CC[C@]4(C)C#N)[C@@H]32 | 14.5 (≈ 48.7 µM) | 0.0741 (≈ 0.249 µM) | 200 | 0.0238 (≈ 0.08 µM) | 610
15 | C[C@H]1C[C@H]2CC(C)(C)CC3=CC[C@H]4[C@@H]([C@@H]1CC[C@]4(C)C#N)[C@@H]32 | > 20 | 0.0849 (≈ 0.285 µM) | > 240 | 0.0284 (≈ 0.0955 µM) | > 700
16 | C=C[C@H]1CN2CC[C@H]1C[C@H]2[C@H](O)c1ccnc2ccc(OC)cc12 [QUININE] | > 20 | – | > 1800 | 0.0546 (≈ 0.168 µM) | > 370
17 | C=C(C)C[C@@H]1C[C@H](C)[C@H]2CC[C@](C)(C#N)[C@H]3CCC(=C)[C@@H]1[C@H]23 | > 20 | 0.52 (≈ 1.75 µM) | > 38.5 | 0.242 (≈ 0.813 µM) | > 82.6
18 | C[C@@H]1CC[C@H]2[C@@H](C)C(=O)O[C@@H]3O[C@@]4(C)CC[C@@H]1[C@]32OO4 [ARTEMISININ] | > 20 | – | – | 0.0021 (≈ 0.00744 µM) | –
19 | C=C(C)C1[C@@H]2C(C)CC[C@@H]2[C@@]2(C)CC[C@@H]12 (stereo partly drawn) | > 20 | > 10 | – | > 10 | –
20 | CC(C)=CCC[C@@H](C)[C@H]1CC[C@](C)(N=C=S)[C@H]2CCC(C)=C[C@H]12 | > 20 | > 10 | – | > 10 | –
21 | [C-]#[N+][C@]1(C)[C@H](C)C[C@@H]2C[C@H](C)[C@H]3CC[C@](C)([N+]#[C-])[C@H]4CC[C@H]1[C@@H]2[C@H]34 [DIISOCYANOADOCIANE] | 4.7 (≈ 14.5 µM) | – | 1000 | 0.0043 (≈ 0.0133 µM) | 1100
22 | C=C(C)C1CC[C@@H]2[C@H]3CCC(C)[C@H]3[C@H]12 (stereo partly drawn) | > 20 | > 10 | – | > 10 | –
23 | C=C1CC[C@H]2[C@H]3[C@H](CC[C@]2(C)C#N)[C@@H](C)C[C@H](C=C(C)C)[C@H]13 | 3.2 (≈ 10.8 µM) | 0.0141 (≈ 0.0474 µM) | 230 | 0.0093 (≈ 0.0313 µM) | 340
